Assay results as given in patent US11406631B2, “Hydrazone derivatives for preventing or treating EBV-related cancers” (Universite de Bretagne Occidentale, priority 2018, dated 2022).

Key:
[1] = system: quadruplex RNA F-EBNA1-T; assay: FRET-melting assay; assay type: binding, Epstein-Barr virus; details: for ΔTm, ligand + 3 μM ds26 / ΔTm, ligand + 10 μM ds26 / ΔTm, ligand alone: F-EBNA1-T 0.2 μM, ligand 1.0 μM, K+10 buffer; for ΔTm, ligand + 3 μM ds26: competitor DNA ds26 3 μM (15 eq); for ΔTm, ligand + 10 μM ds26: competitor DNA ds26 10 μM (50 eq); for ΔTm, ligand alone: no competitor; for affinity for the G-quadruplex structure of EBNA1 (in words, FRET-melting data): conclusion from Table 2
Text: The FRET-melting assay is based on thermal denaturation of G4-ARN monitored by fluorescence due to the phenomenon of Förster Resonance Energy Transfer (FRET). This method uses quadruplex-forming RNA sequence dual-labeled with two different fluorophores: a donor (fluorescein, or FAM) and an acceptor (tetramethylrhodamine, or TAMRA). When RNA is folded into G-quadruplex (G4) structure, fluorescence of the donor fluorophore is weak due to strong energy transfer (FRET) to the neighboring acceptor fluorophore. Upon thermal denaturation, the quadruplex unfolds and the fluorophores are separated, leading to decrease of the FRET effect and increase of the fluorescence of the donor (see FIG. 2). By following the fluorescence of the donor as a function of temperature, a melting curve of the G-quadruplex RNA can be obtained, which allows determining the temperature of denaturation at which 50% of the quadruples is unfolded (T1, FIG. 3).
The FRET-melting assay allows assessing the affinity of small molecules (ligands) for the G4-RNA. The addition of a G4-ligand stabilizes the G-quadruplex structure and increases the denaturation temperature. The temperature of denaturation in the presence of ligands (T2) can be compared with that obtained in the absence of ligands (T1). The value of ΔTm (ΔTm=T2−T1) represents a measure of the affinity of the compounds of the invention (ligand). Generally, values of ΔTm>20° C. correspond to ligands of high affinity.
The dual-labeled oligoribonucleotide EBNA1 [5′-FAM-r(GGGGCAGGAGCAGGAGGA)-TAMRA-3′] (SEQ ID no 2) purified by reversed-phase HPLC was purchased from Eurogentec. The donor fluorophore was 6-carboxyfluorescein (FAM) and the acceptor fluorophore was 6-carboxytetramethylrhodamine (TAMRA).
Stock solutions of the ligands (2 mM in DMSO) were used for FRET-melting assay, unless otherwise stated, and were stored at −20° C. FRET-melting measurements are performed on 7900HT Fast Real-Time PCR System (Applied Biosystems) with Microamp Fast optical 96-well reaction plate (Applied Biosystems).
Preparation of Oligonucleotides For FRET-melting assay, oligoribonucleotide F-EBNA1-T was dissolved in K^+10 buffer (10 mM lithium cacodylate buffer, pH 7.3, supplemented with 10 mM KCl and 90 mM LiCl).
Prior to use, all oligonucleotides were pre-treated by heating at 95° C. for 5 min, then rapidly cooled to 4° C. to favor the intramolecular folding by kinetic trapping. Duplex-DNA ds26 (5′CAA-TCG-GAT-CGA-ATT-CGA-TCC-GAT-TG-3′) (SEQ ID no 3) was prepared by heating this self-complementary strand at 90° C. for 5 min in K^+10 buffer followed by a slow cooling over 6 h.
FRET-melting assay is performed in 96-well plates on real time PCR apparatus 7900HT Fast Real-Time PCR System using the heating ramp as follow: 5 min at 25° C., then increase of 0.5° C. every minute until 95° C. Each experimental condition was tested in duplicated in a volume of 25 μL for each sample. The 96-well plates (Applied Biosystems) were prepared by aliquoting the annealed RNA (24 μL of 0.21 μM solution in K^+10 buffer) into each well, followed by 1 μL of ligand solution (25 μM in K^+10 buffer). For competition experiments, duplex competitors were added to 200 nM quadruplex sequences at final concentrations of 3.0 μM (15 eq) and 10.0 μM (50 eq), with a total reaction volume of 25 μL, with the labeled oligoribonucleotide (0.2 μM) and the ligand (1.0 μM). Measurements were made with excitation at 492 nm and detection at 516 nm. The change in the melting temperature in the presence of 1.0 μM putative ligand, ΔTm (1.0 μM), was calculated from at least two experiments by subtraction of the blank from the averaged melting temperature of each compound (1.0 μM).
The results are shown in FIG. 4 and in Table 2 below (higher ΔTm values indicate higher affinity of the compounds to G4-RNA structure of EBNA1).

[2] = system: GAr-based inhibition of protein expression; assay: SDS-PAGE and western blot of 235GAr-OVA and OVA in transfected H1299 cells; assay type: cell-based
Text: The aim of these experiments is to assess the effect of the inventive compounds on the GAr-based inhibition of protein expression. For this purpose, H1299 cells were transfected by plasmids allowing expression of either EBNA1 or, as a control EBNA1ΔGAr and then treated, or not by various concentrations of the indicated compounds. […] Compounds able to interfere with GAr-based inhibition of translation will increase the steady state level of EBNA1, whereas a having no effect on EBNA1ΔGAr.
The ratio of the quantity of OVA or GAr-OVA relatively to GAPDH (the loading control) are indicated below the gel.

| SMILES | ΔTm, ligand + 3 μM ds26 [1] | ΔTm, ligand + 10 μM ds26 [1] | ΔTm, ligand alone [1] | affinity for the G-quadruplex structure of EBNA1 (in words, FRET-melting data) [1] | OVA expression ([2]; control without GAr) | steady-state level of 235GAr-OVA ([2]; dose-dependent, relative to GAPDH) |
| --- | --- | --- | --- | --- | --- | --- |
| C[n+]1ccc(C=NNC(=O)c2cccc(C(=O)NN=Cc3cc[n+](C)c4ccccc34)n2)c2ccccc21.[I-].[I-] [Compound 2a, N′^2, N′^6-Bis[(1-methylquinolinium-4-yl)methylene]pyridine-2,6-dicarbohydrazide iodide] | 16.1 ± 0.4 °C | 14.2 ± 0.7 °C | 16.4 ± 0.4 °C | particularly high affinity | no significant effect | significant increase |
| C[n+]1ccc(C=NNC(=O)c2ccc3ccc4ccc(C(=O)NN=Cc5cc[n+](C)c6ccccc56)nc4c3n2)c2ccccc21.[I-].[I-] [Compound 11a, N′^2,N′^9-Bis[(1-methylquinolinium-4-yl)methylene]-1,10-phenanthroline-2,9-dicarbohydrazide iodide] | 21.1 ± 0.6 °C | 19.3 ± 1.1 °C | 21.5 ± 0.2 °C | particularly high affinity |  |  |
